Measurements: the supplement of paper PMC10307832

Legend:
Assay in all cases: relative viability (nuclei count vs DMSO), 5 days (fraction); higher = more cells survive
[1] = compound: O=C(C[C@H]1NCCC[C@@H]1O)Cn1cnc2cc(Br)c(Cl)cc2c1=O (racemic) [Halofuginone] + CC(C)C[C@H](NC(=O)[C@H](Cc1ccccc1)NC(=O)c1cnccn1)B(O)O [Bortezomib] (partner 0.002 µM)
Outline: (§1)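 Medians of duplicate plates are given as relative viability. That measure is the nuclei count in treated wells divided by the count in vehicle wells. Counts were taken on 4× images of lung cancer cell lines in 1536-well plates, 5 days after pin-tool dosing the day after seeding with one drug alone or a fixed anchor-drug dose plus five library-drug doses (not always all listed) in √10 steps.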

Cediranib + OSI-027 = compound: COc1cc2c(Oc3ccc4[nH]c(C)cc4c3F)ncnc2cc1OCCCN1CCCC1 [Cediranib] + COc1cccc2cc(-c3nc([C@H]4CC[C@H](C(=O)O)CC4)n4ncnc(N)c34)[nH]c12 [OSI-027] (partner 0.5 µM)
Outline: as §1

Decitabine + Luminespib = compound: Nc1ncn([C@H]2C[C@H](O)[C@@H](CO)O2)c(=O)n1 [Decitabine] + CCNC(=O)c1noc(-c2cc(C(C)C)c(O)cc2O)c1-c1ccc(CN2CCOCC2)cc1 [Luminespib] (partner 0.01 µM)
Outline: as §1

Decitabine + Dasatinib = compound: Nc1ncn([C@H]2C[C@H](O)[C@@H](CO)O2)c(=O)n1 [Decitabine] + Cc1nc(Nc2ncc(C(=O)Nc3c(C)cccc3Cl)s2)cc(N2CCN(CCO)CC2)n1 [Dasatinib] (partner 0.075 µM)
Outline: as §1

Cell Line	relative viability ([1]; first compound 0.001 µM)	relative viability ([1]; first compound 0.003162 µM)	relative viability ([1]; first compound 0.01 µM)	relative viability ([1]; first compound 0.03162 µM)	relative viability ([1]; first compound 0.1 µM)	relative viability (Cediranib + OSI-027; first compound 0.04 µM)	relative viability (Cediranib + OSI-027; first compound 0.1265 µM)	relative viability (Cediranib + OSI-027; first compound 0.4 µM)	relative viability (Cediranib + OSI-027; first compound 1.265 µM)	relative viability (Cediranib + OSI-027; first compound 4 µM)	relative viability (Decitabine + Luminespib; first compound 0.04 µM)	relative viability (Decitabine + Luminespib; first compound 0.1265 µM)	relative viability (Decitabine + Luminespib; first compound 0.4 µM)	relative viability (Decitabine + Luminespib; first compound 1.265 µM)	relative viability (Decitabine + Luminespib; first compound 4 µM)	relative viability (Decitabine + Dasatinib; first compound 0.04 µM)	relative viability (Decitabine + Dasatinib; first compound 0.1265 µM)	relative viability (Decitabine + Dasatinib; first compound 0.4 µM)	relative viability (Decitabine + Dasatinib; first compound 1.265 µM)	relative viability (Decitabine + Dasatinib; first compound 4 µM)
NCI-H2023	0.981	1.07	0.957	0.421	0.0849	0.342	0.402	0.374	0.385	0.415	0.317	0.386	0.153	0.138	0.14	0.41	0.4	0.284	0.173	0.141
EBC-1	0.507	0.616	0.458	0.325	0.135															
NCI-H1666	0.856	0.902	0.791	0.85	0.618	0.9	0.809	0.891	0.802	0.805	0.927	0.964	0.815	0.674	0.726	0.773	0.735	0.684	0.636	0.617
NCI-H1975	0.432	0.383	0.402	0.339	0.168	0.691	0.773	0.686	0.638	0.801	0.198	0.161	0.162	0.174	0.142	0.325	0.258	0.197	0.194	0.15
NCI-H2170						0.619	0.529	0.691	0.611	0.786	0.645	0.641	0.488	0.286	0.253	0.528	0.502	0.461	0.269	0.228
NCI-H1355	1.13	1.19	1.18	1.24	0.951	0.38	0.363	0.387	0.34	0.449	0.538	0.483	0.454	0.298	0.258	0.61	0.6	0.369	0.276	0.296
NCI-H1648						0.284		0.259	0.272	0.246										
SK-MES-1						0.666	0.633	0.608	0.542	0.788	0.566	0.575	0.331	0.288	0.232	0.333	0.234	0.161	0.135	0.158
EKVX	1.15	1.02	1.05	1.01	0.935	0.759	0.809	0.681	0.684	0.723	0.68	0.682	0.551	0.389	0.322	0.479	0.494	0.368	0.36	0.329
RERF-LC-KJ	1.23	1.12	1.15	1.17	1.04	0.572	0.511	0.547	0.492	0.523	1.18	1.01		0.582	0.685	0.703	0.741		0.465	0.485
NCI-H1755	0.968	0.913	0.94	0.99	0.816	0.601	0.565	0.689	0.694	0.81	0.451	0.528	0.441	0.394	0.278	0.47	0.467	0.422	0.365	0.306
NCI-H661	0.848	0.826	0.845	0.822	0.536	0.734	0.686	0.71	0.686	0.669	0.937	0.771	0.628	0.534	0.452	0.679	0.629	0.475	0.305	0.347
LOU-NH91	0.461	0.498	0.484	0.459	0.535	0.769	0.862	0.707	0.582	0.701	0.323	0.344	0.358	0.299	0.35	0.43	0.551	0.627	0.491	0.519
LXF-289	0.928	1.08	0.985	0.996	0.908	0.667	0.641	0.689	0.77	0.79	0.418	0.313	0.261	0.222	0.196	0.201	0.193	0.129	0.118	0.0831
HCC-44	0.926	0.848	0.794	0.802	0.575			0.447	0.473	0.619		0.848	0.52	0.618	0.471					
HARA	1.12	1.03	1.09	1.15	1.14	0.367		0.446	0.353	0.657	0.802	0.544	0.34	0.144	0.158	0.311	0.261	0.232	0.257	0.138
201T	1.06	1.1	1.15	1.1	1.16	0.945	0.841	0.671	0.717	0.692	0.984	0.987	1.07		0.75	0.567	0.595	0.578		0.517
LC-2-ad	1.3	1.08	0.972	1.01	0.667	0.874	0.731	0.821	0.762	0.835	0.839	0.958	0.782	0.492	0.558	0.416	0.603	0.404	0.262	0.261

Cell Line	relative viability ([1]; first compound 0.001 µM)	relative viability ([1]; first compound 0.003162 µM)	relative viability ([1]; first compound 0.01 µM)	relative viability ([1]; first compound 0.03162 µM)	relative viability ([1]; first compound 0.1 µM)	relative viability (Cediranib + OSI-027; first compound 0.04 µM)	relative viability (Cediranib + OSI-027; first compound 0.1265 µM)	relative viability (Cediranib + OSI-027; first compound 0.4 µM)	relative viability (Cediranib + OSI-027; first compound 1.265 µM)	relative viability (Cediranib + OSI-027; first compound 4 µM)	relative viability (Decitabine + Luminespib; first compound 0.04 µM)	relative viability (Decitabine + Luminespib; first compound 0.1265 µM)	relative viability (Decitabine + Luminespib; first compound 0.4 µM)	relative viability (Decitabine + Luminespib; first compound 1.265 µM)	relative viability (Decitabine + Luminespib; first compound 4 µM)	relative viability (Decitabine + Dasatinib; first compound 0.04 µM)	relative viability (Decitabine + Dasatinib; first compound 0.1265 µM)	relative viability (Decitabine + Dasatinib; first compound 0.4 µM)	relative viability (Decitabine + Dasatinib; first compound 1.265 µM)	relative viability (Decitabine + Dasatinib; first compound 4 µM)
NCI-H596	1	1.01	0.934	1.01	0.698	0.775	0.815	0.723		0.788	0.9	1.01		0.696	0.739	0.59	0.585		0.508	0.435
NCI-H1437	0.548	0.604	0.504	0.483	0.253	0.841	0.992	0.796	0.851	1.02	0.995	0.825	0.633	0.445	0.372	0.357	0.376	0.256	0.167	0.169
NCI-H358						0.812	0.967	0.683	0.609	0.845	0.073	0.206	0.247	0.199	0.1	0.255	0.203	0.216	0.137	0.153
Calu-6	1.04	1.17	0.974	0.452	0.137															
NCI-H1395						0.628	0.751	0.62	0.615	0.608	0.626	0.661	0.568	0.432	0.438	0.409	0.416	0.428	0.413	0.417
NCI-H1623						0.426	0.442	0.477	0.423	0.392	0.51	0.475	0.504	0.427	0.434	0.464	0.494	0.461	0.467	0.514
LK-2						0.181	0.192	0.22	0.175	0.201	0.196	0.193	0.156	0.214	0.17	0.406	0.445	0.227	0.266	0.301
NCI-H1299	1.08	1.02	1	0.986	0.851															
NCI-H1703	0.363	0.333	0.305	0.282	0.224															
NCI-H522						0.719	0.77	0.686	0.707	0.694	1.07	0.919	0.923	0.652	0.684	1.02	0.748	0.607	0.632	0.678
NCI-H1793						0.271	0.276	0.245		0.301	0.154	0.212	0.19	0.176	0.213	0.347	0.394	0.382	0.246	0.239
IA-LM	0.894	0.741	0.664	0.533	0.0776															
SW 900						0.712	0.642	0.504	0.59	0.69	0.212	0.164	0.169	0.179	0.197	0.35	0.405	0.387	0.292	0.163
HCC-366	0.948	1.06	1.04	0.994	0.397	0.933	0.877	0.841	0.84	1.07						0.608	0.632	0.567	0.195	0.128
HCC-78	0.653	0.42	0.445	0.543	0.369	0.356	0.448	0.376	0.311	0.356						0.269	0.334	0.361	0.285	0.208
NCI-H2342						0.615	0.671	0.659	0.549	0.508	0.765	0.737	0.804	0.537	0.434	0.329	0.365	0.308	0.295	0.303
NCI-H1944						0.382	0.513	0.422	0.39	0.429	0.643	0.645	0.633	0.389	0.369	0.201	0.242	0.177	0.2	0.211
